The source of these data is ChEMBL document CHEMBL5365500, “Development and Antibacterial Properties of 4-[4-(Anilinomethyl)-3-phenylpyrazol-1-yl]benzoic Acid Derivatives as Fatty Acid Biosynthesis Inhibitors” (J Med Chem, 2023).

For orientation: MIC means the smallest concentration in the dilution series that meets the test's criterion for growth inhibition.

Format in all cases: functional
Common to all, as to details: time 20-24 hrs

In assay [1] the test system is Staphylococcus aureus. The experiment in a line: Antimicrobial activity against Staphylococcus aureus ATCC 25923 assessed as inhibition of visible growth measured after 20 to 24 hrs incubation by CLSI method.
Assay [2] deals with Staphylococcus aureus. Kind of assay: Antimicrobial activity against antibiotic-resistant Staphylococcus aureus ATCC BAA-2312 assessed as inhibition of visible growth measured after 20 to 24 hrs incubation by CLSI method.
The subject of assay [3] is Staphylococcus aureus. Kind of assay: Antimicrobial activity against antibiotic-resistant Staphylococcus aureus ATCC 33591 assessed as inhibition of visible growth measured after 20 to 24 hrs incubation by CLSI method.
The subject of assay [4] is Staphylococcus aureus. Kind of assay: Antimicrobial activity against antibiotic-resistant Staphylococcus aureus ATCC 33592 assessed as inhibition of visible growth measured after 20 to 24 hrs incubation by CLSI method.
Assay [5] relates to Staphylococcus aureus. The experiment in a line: Antimicrobial activity against antibiotic-resistant Staphylococcus aureus ATCC 700699 assessed as inhibition of visible growth measured after 20 to 24 hrs incubation by CLSI method.
The test system of assay [6] is Staphylococcus epidermidis. Kind of assay: Antimicrobial activity against antibiotic-resistant Staphylococcus epidermidis ATCC 700296 assessed as inhibition of visible growth measured after 20 to 24 hrs incubation by CLSI method.
Assay [7] deals with Enterococcus faecalis. The experiment in a line: Antimicrobial activity against antibiotic-susceptible Enterococcus faecalis ATCC 29212 assessed as inhibition of visible growth measured after 20 to 24 hrs incubation by CLSI method.
Assay [8] deals with Enterococcus faecalis. The experiment in a line: Antimicrobial activity against antibiotic-resistant Enterococcus faecalis ATCC 51299 assessed as inhibition of visible growth measured after 20 to 24 hrs incubation by CLSI method.
The test system of assay [9] is Enterococcus faecium. The experiment in a line: Antimicrobial activity against antibiotic-resistant Enterococcus faecium ATCC 700221 assessed as inhibition of visible growth measured after 20 to 24 hrs incubation by CLSI method.
Assay [10] has as its system Bacillus subtilis. Kind of assay: Antimicrobial activity against antibiotic-resistant Bacillus subtilis ATCC 6623 assessed as inhibition of visible growth measured after 20 to 24 hrs incubation by CLSI method.

Converted amounts (≈) assume the structure as drawn. Bounds are passed on as bounds.

For the compound `O=C(O)c1ccc(-n2cc(CNc3cccc(Cl)c3)c(-c3ccc(F)cc3)n2)cc1`, the MIC in [1] amounted to 8 µg/mL (≈ 19 µM); in assay [2] it was 4 µg/mL (≈ 9.48 µM); in assay [3], 4 µg/mL (≈ 9.48 µM); in [4] it was 16 µg/mL (≈ 37.9 µM); in assay [5] it was 8 µg/mL (≈ 19 µM); in assay [6] it was 16 µg/mL (≈ 37.9 µM). Moreover, the MIC turned out to be 32 µg/mL (≈ 75.9 µM) in assay [7], 32 µg/mL (≈ 75.9 µM) in assay [8], 32 µg/mL (≈ 75.9 µM) in assay [9] and 4 µg/mL (≈ 9.48 µM) in assay [10].

Take `O=C(O)c1ccc(-n2cc(CNc3ccc(C(F)(F)F)cc3)c(-c3ccc(F)c(F)c3)n2)cc1`: the MIC turned out to be 2 µg/mL (≈ 4.22 µM) in assay [1]; 2 µg/mL (≈ 4.22 µM) in [2]; 1 µg/mL (≈ 2.11 µM) in assay [3]; 2 µg/mL (≈ 4.22 µM) in [4]; 4 µg/mL (≈ 8.45 µM) in assay [5]; 4 µg/mL (≈ 8.45 µM) in assay [6]. Also, the MIC in [7] was greater than 32 µg/mL; in assay [8], greater than 32 µg/mL; in assay [9], 8 µg/mL (≈ 16.9 µM); in assay [10], 1 µg/mL (≈ 2.11 µM).

`O=C(O)c1ccc(-n2cc(CNc3cc(F)cc(C(F)(F)F)c3)c(-c3ccc(F)cc3)n2)cc1`: the minimum inhibitory concentration (MIC) in assay [1] is 2 µg/mL (≈ 4.22 µM); in [2], 2 µg/mL (≈ 4.22 µM); in assay [3], 2 µg/mL (≈ 4.22 µM); in assay [4] it was 4 µg/mL (≈ 8.45 µM); in assay [5], 2 µg/mL (≈ 4.22 µM); in assay [6], 4 µg/mL (≈ 8.45 µM). Moreover, the MIC in [7] came to 16 µg/mL (≈ 33.8 µM); in assay [8], 16 µg/mL (≈ 33.8 µM); in assay [9] it was 8 µg/mL (≈ 16.9 µM); in assay [10] it was 4 µg/mL (≈ 8.45 µM).

Consider `O=C(O)c1ccc(-n2cc(CNc3cc(Cl)ccc3Cl)c(-c3cccc(F)c3)n2)cc1`, for which the MIC in assay [1] amounted to 32 µg/mL (≈ 70.1 µM); in assay [2] it was 16 µg/mL (≈ 35.1 µM); in assay [3], 32 µg/mL (≈ 70.1 µM); in [4], 32 µg/mL (≈ 70.1 µM); in assay [5], 32 µg/mL (≈ 70.1 µM); in assay [6], 32 µg/mL (≈ 70.1 µM). For the same compound, the MIC in [7] was 32 µg/mL (≈ 70.1 µM); in assay [8], 32 µg/mL (≈ 70.1 µM); in assay [9], 32 µg/mL (≈ 70.1 µM); in [10], 8 µg/mL (≈ 17.5 µM).

`O=C(O)c1ccc(-n2cc(CNc3ccc(Br)c(C(F)(F)F)c3)c(-c3ccc(F)c(F)c3)n2)cc1`: the MIC in assay [1] came out at 0.5 µg/mL (≈ 0.905 µM); in assay [2], 0.5 µg/mL (≈ 0.905 µM); in assay [3] it was 0.5 µg/mL (≈ 0.905 µM); in [4], 0.5 µg/mL (≈ 0.905 µM); in assay [5], 1 µg/mL (≈ 1.81 µM); in assay [6], 4 µg/mL (≈ 7.24 µM). For the same compound, the MIC is 2 µg/mL (≈ 3.62 µM) in assay [7], 4 µg/mL (≈ 7.24 µM) in [8], 2 µg/mL (≈ 3.62 µM) in assay [9] and 1 µg/mL (≈ 1.81 µM) in assay [10].

On to `O=C(O)c1ccc(-n2cc(CNc3ccc(Br)c(C(F)(F)F)c3)c(-c3ccc(F)cc3)n2)cc1`, for which the MIC in assay [1] was 2 µg/mL (≈ 3.74 µM); in assay [2] it was 1 µg/mL (≈ 1.87 µM); in assay [3], 0.5 µg/mL (≈ 0.936 µM); in [4], 2 µg/mL (≈ 3.74 µM); in [5], 1 µg/mL (≈ 1.87 µM); in assay [6] it was 4 µg/mL (≈ 7.49 µM). Besides, the MIC in [7] amounted to 4 µg/mL (≈ 7.49 µM); in assay [8], 4 µg/mL (≈ 7.49 µM); in [9], 2 µg/mL (≈ 3.74 µM); in assay [10], 1 µg/mL (≈ 1.87 µM).

`O=C(O)c1ccc(-n2cc(CNc3ccc(F)c(Cl)c3F)c(-c3ccc(F)c(F)c3)n2)cc1`: the MIC in assay [1] was found to be 4 µg/mL (≈ 8.41 µM); in assay [2], 4 µg/mL (≈ 8.41 µM); in [3], 2 µg/mL (≈ 4.2 µM); in assay [4], 4 µg/mL (≈ 8.41 µM); in [5], 4 µg/mL (≈ 8.41 µM); in assay [6], 8 µg/mL (≈ 16.8 µM). The MIC in assay [7] was 16 µg/mL (≈ 33.6 µM); in assay [8], greater than 32 µg/mL; in assay [9] it was 4 µg/mL (≈ 8.41 µM); in assay [10], 1 µg/mL (≈ 2.1 µM).

As for `O=C(O)c1ccc(-n2cc(CNc3cc(Cl)cc(Cl)c3)c(-c3cccc(F)c3)n2)cc1`, the MIC in [1] was 2 µg/mL (≈ 4.38 µM); in [2], 1 µg/mL (≈ 2.19 µM); in assay [3] it was 1 µg/mL (≈ 2.19 µM); in assay [4] it was 1 µg/mL (≈ 2.19 µM); in assay [5], 4 µg/mL (≈ 8.77 µM); in [7] it was 8 µg/mL (≈ 17.5 µM). Further, the MIC in assay [10] stood at 1 µg/mL (≈ 2.19 µM).

For `O=C(O)c1ccc(-n2cc(CNc3ccc(Br)c(Cl)c3)c(-c3cccc(F)c3)n2)cc1`, the MIC in assay [2] turned out to be 1 µg/mL (≈ 2 µM); in [3], 1 µg/mL (≈ 2 µM); in assay [4], 1 µg/mL (≈ 2 µM); in [5], 2 µg/mL (≈ 3.99 µM); in [6] it was 4 µg/mL (≈ 7.99 µM); in [7] it was 8 µg/mL (≈ 16 µM). The MIC in assay [8] amounted to 4 µg/mL (≈ 7.99 µM); in [9] it was 4 µg/mL (≈ 7.99 µM); in assay [10] it was 1 µg/mL (≈ 2 µM).
